Tests used:
IL-12p70 = assay: Example 7: cytokine concentrations at implant site; format: in vivo, C57BL/6J mice; conditions: with GM-CSF
Protocol: To determine in vivo IL-12p70 concentration at the matrix implant site, adjacent tissue was excised and digested with tissue protein extraction reagent. After centrifugation, the concentrations of IL-12, in the supernatant were then analyzed with ELISA (R&D systems), according to the manufacturer's instructions.

B16-F10 tumors = assay: Example 7: tumor infiltrating leukocyte (TIL) characterization; set-up: species or system C57BL/6J mice; conditions: mouse, in vivo
Protocol: On the indicated days, B16-F10 tumors were removed from mice, and digested in 1 mg/mL collagenase II (250 U/ml) (Worthington, Lakewood, N.J.) and 0.1 mg/mL DNase for 1 hour at 37° C. Dissociated cells were filtered through a 40-μm filter, and directly stained with antibodies for phenotype characterization by fluorescence-activated cell sorting (FACS) analysis. APC-anti-CD8 and PE-Cy7-anti CD3 were used to identify T cells isolated from the B16F10 tumors. These TILs were also costained with FITC-anti-IFNγ, and PE-anti-CD107a. All antibodies were obtained from eBioscience, San Diego, Calif.

B16-F10 melanoma cells = assay: Example 7: therapeutic vaccination of established B16-F10 melanoma
Protocol: To assess PLG vaccine efficacy in the therapeutic setting, C57/BL6J mice were challenged with a subcutaneous injection of 5×10^5 B16-F10 melanoma cells (ATCC, Manassas, N.J.) in the back of the neck. At day 9 after tumor challenge PLG vaccines loaded with 3000 ng GM-CSF in combination with 100 μg of CpG-ODN, MPLA or P(I:C), and tumor lysates were implanted subcutaneously into the lower left flank of C57BL/6J mice. A subset of mice were vaccinated again 10 days after the initial vaccination (Days 19 and 23).
Mice challenged with 5×10^5B16-F10 melanoma cells were subsequently vaccinated at days 9 and 19, after tumors were established.

JAWSII DCs = assay: In vitro DC migration toward CCL19 (transwell); format: cell-based
Protocol: Migration assays were performed with 6.5 mm transwell dishes (Costar, Cambridge, Mass.) with a pore size of 5 μm. To test whether CpG-ODN stimulation may affect DC chemotaxis towards CCL19 (Peprotech, Rocky Hill, N.J.) in the presence of GM-CSF, 5×10^5 DCs stimulated with either 5 μg/ml of CpG-ODN or PEI-CPG-ODN (Charge Ratio of 7), and 0, 50 and 500 ng/ml GM-CSF were placed in the top wells and 300 ng/ml of CCL19 was placed in the bottom well. After 12 hours the cells that migrated into the bottom wells of the chamber were harvested and counted using a coulter counter. Dispersement of DCs from PEI-CpG-ODN loaded PLG matrices toward CCL19 was assessed by incorporating 5, 50 and 500 μg of condensates into PLG scaffolds (13 mm diameter, 2 mm thick that were quartered) seeded with 1×10^6 DCs and fixed onto transwells using bovine collagen (BD Biosciences, San Jose, Calif.). To test the effects of CpG stimulation in the presence of GM-CSF, 500 ng/ml of GM-CSF was supplemented into the media of the top wells with scaffolds containing 25 μg of PEI-CpG-ODN. At various timepoints, the cells that migrated into the bottom wells of the chamber were harvested and counted using a coulter counter.

[1] = test system: bone marrow derived dendritic cells; assay: Example 8: transwell chemotaxis and chemokinesis of bone marrow derived DCs; format: cell-based, C57BL/6 mice; conditions: 12 h
Protocol: Primary bone-marrow-derived dendritic cells (BMDCs) were flushed from the femurs of C57BL/6 mice and cultured in 100-mm bacteriological petri dishes (Falcon number 1029/Becton Dickinson). Cell culture medium RPMI-1640 (R10) (Sigma) was supplemented with 1% Penicillin-Streptomycin (Invitrogen), 2 mM 1-Glutamine (Invitrogen), 50 μM 2-mercaptoethanol (Sigma) and 10% heat-inactivated fetal bovine serum (FBS, Invitrogen). At day 0, bone marrow leukocytes were seeded at 2×10^6 cells per 100-mm dish in 10 ml R10 medium containing 20 ng/nil granulocyte-macrophage colony-stimulating factor (GM-CSF) (Peprotech). At day 3, another 10 ml R10 medium containing 20 ng/mL GM-CSF was added. to the plates. At days 6 and 8, half of the culture supernatant was collected and centrifuged, the cell pellet was resuspended in 10 ml fresh R10 containing 20 ng/mL GM-CSF, and placed back into the original plate. The non-adherent cell population in the culture supernatant was used between days 8 and 12 for all the experiments.
Transwell migration studies were performed by plating bone marrow derived dendritic cells in the top well of 6.5 mm transwell dishes (Costar, Cambridge, Mass.) with a pore size of 5 μm. The chemotactic effects of GM-CSF, FL (Flt3), and CCL20 on the migration of BMDCs was assessed by placing 500 ng/ml of recombinant murine GM-CSF, FL or CCL20 (Peprotech, Rocky Hill, N.J.) in the bottom wells and 3×10^5 DCs in the top wells. For chemokinesis studies, the concentration of cytokine in each compartment was equal at 500 ng/ml and 3×10^5 DCs were added to the top wells. The number of cells that migrated from the top well to the bottom well through the porous membrane was counted at the end of 12 h to quantify migration. Cells that had migrated to the bottom well were collected by treatment with 0.25% trypsin-0.03% ethylenediaminetetraacetic acid (EDTA, Invitrogen) and counted with a Z2 coulter counter (Beckman Coulter, Inc).

In the case of CpG-ODN 1826, the “effect on IFN-α concentration at vaccine site” value (IL-12p70) is reported as “elevated levels”, the “increase in IFNγ(+), CD107a(+) TILs in comparison to controls” value (B16-F10 tumors) is reported as “approximately 6.1 fold” and the “complete tumor regression, fraction of vaccinated animals” value (B16-F10 melanoma cells; mouse, in vivo) is reported as “over a third”. For the same molecule, the “size of tumors that completely regressed / were eradicated” value (B16-F10 melanoma cells; mouse, in vivo) was 35 mm^2 and the “long term survival of mice” value (B16-F10 melanoma cells; vaccinated at days 9 and 19) was 33%.

B1: granulocyte macrophage colony stimulating factor (protein, UniProt P01587 18-141, looked up)
Granulocyte-macrophage …: APTRSPITVTRPWKHVEAIKEALNLLDDMPVTLNEEVEVVSNEFSFKKLTCVQTRLKIFEQGLRGNFTKLKGALNMTASYYQTYCPPTPETDCETQVTTYADFIDSLKTFLTDIPFECKKPGQK
notes: cytokine encapsulated in and released from PLG matrices to recruit DCs
For B1, the “concentration that inhibited DC migration toward CCL19” value (JAWSII DCs) was greater than 100 ng/mL, the “DC chemotaxis, migration higher than control condition” value ([1]; 500 ng/ml in bottom wells) was “approximately 50%” and the “DC chemokinesis, increase in number of migrated cells” value ([1]; homogenous cytokine 500 ng/ml) was 50%.
